In patent publication US11890288B2, “Sulfonamide or sulfinamide compound having effect of inducing BRD4 protein degradation and pharmaceutical use thereof” (MITSUBISHI TANABE PHARMA CORPORATION, priority 2020, dated 2024):

How the values were obtained:
BRD4 protein = BRD4 protein (Homo sapiens (Human), UniProt O60885); experiment: BRD4 protein degradation inducing action in LNCaP cells (immunofluorescence, 6 hr); type: cell-based; conditions: anti-BRD4 fluorescence intensity
Method in brief: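 LNCaP cells in 10% FBS/RPMI1640 exposed to compound for 6 hr, fixed, permeabilized and immunostained for BRD4 with Alexa Fluor 546 secondary; fluorescence (ex 560, em 572 nm) read by imaging. DC50 = concentration giving 50% of untreated signal, interpolated linearly between the two bracketing points.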

[1] = tested on: human prostate cancer LNCaP cells; experiment: Cytotoxic action on LNCaP cells (WST-8, 96 hr); type: cell-based; conditions: 96 hr culture
Method in brief: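 Cells in 10% FBS/RPMI1640 plated overnight at 37° C, 5% CO2, then exposed to compound (DMSO stock diluted in medium) for 96 hr. Viable cells measured by WST-8. IC50 = concentration giving 50% survival versus untreated, interpolated linearly between the two bracketing points.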

Row | Structure (SMILES) | DC50 (BRD4 protein) [nM] | IC50 [1] [nM]
1 | COC(=O)C[C@@H]1N=C(c2ccc(-c3ccc(C(=O)N[C@H](C)c4ccc(S(=O)(=O)Nc5ccc(C)c6c(C#N)c[nH]c56)cc4)cc3C)cc2)c2c(sc(C)c2C)-n2c(C)nnc21 [Example 88, methyl [(6S)-4-(4′-{[(1R)-1-{4-[(3-cyano-4-methyl-1H-indol-7-yl)sulfamoyl]phenyl}ethyl]carbamoyl}-2′-methyl[1,1′-biphenyl]-4-yl)-2,3,9-trimethyl-6H-thieno[3,2-f][1,2,4]triazolo[4,3-a][1,4]diazepin-6-yl]acetate] | 0.37 | 0.17
2 | CCc1ccc(NS(=O)(=O)c2ccc(CNC(=O)c3ccc(-c4ccc(C5=N[C@@H](CC(=O)OC)c6nnc(C)n6-c6sc(C)c(C)c65)cc4)c(C)c3)cc2)c2[nH]cc(C#N)c12 [Example Compound 117, methyl [(6S)-4-{4′-[({4-[(3-cyano-4-ethyl-1H-indol-7-yl)sulfamoyl]phenyl}methyl)carbamoyl]-2′-methyl[1,1′-biphenyl]-4-yl}-2,3,9-trimethyl-6H-thieno[3,2-f][1,2,4]triazolo[4,3-a][1,4]diazepin-6-yl]acetate] | 0.16 | 0.41
3 | CCc1ccc(NS(=O)(=O)c2ccc(CCNC(=O)c3ccc(-c4ccc(C5=N[C@@H](CC(=O)OC)c6nnc(C)n6-c6sc(C)c(C)c65)cc4)c(F)c3)cc2)c2[nH]cc(C#N)c12 [Example Compound 124, methyl [(6S)-4-{4′-[(2-{4-[(3-cyano-4-ethyl-1H-indol-7-yl)sulfamoyl]phenyl}ethyl)carbamoyl]-2′-fluoro[1,1′-biphenyl]-4-yl}-2,3,9-trimethyl-6H-thieno[3,2-f][1,2,4]triazolo[4,3-a][1,4]diazepin-6-yl]acetate] | 0.095 | 0.27
4 | Cc1sc2c(c1C)C(c1ccc(-c3ccc(C(=O)NCc4ccc(S(=O)(=O)Nc5ccc(C)c6c(C#N)c[nH]c56)cc4)nn3)cc1)=N[C@@H](CC(=O)OC(C)(C)C)c1nnc(C)n1-2 [Example Compound 150, t-butyl [(6S)-4-(4-{6-[({4-[(3-cyano-4-methyl-1H-indol-7-yl)sulfamoyl]phenyl}methyl)carbamoyl]pyridazin-3-yl}phenyl)-2,3,9-trimethyl-6H-thieno[3,2-f][1,2,4]triazolo[4,3-a][1,4]diazepin-6-yl]acetate] | 0.12 | 0.43
5 | COC(=O)C[C@@H]1N=C(c2ccc(-c3ccc(C(=O)NCc4ccc(S(=O)(=O)Nc5ccc(C)c6c(C#N)c[nH]c56)cc4C)cc3)cc2)c2c(sc(C)c2C)-n2c(C)nnc21 [Example 94, methyl [(6S)-4-{4′-[({4-[(3-cyano-4-methyl-1H-indol-7-yl)sulfamoyl]-2-methylphenyl}methyl)carbamoyl][1,1′-biphenyl]-4-yl}-2,3,9-trimethyl-6H-thieno[3,2-f][1,2,4]triazolo[4,3-a][1,4]diazepin-6-yl]acetate] | 0.13 | 0.42
6 | CCc1ccc(NS(=O)(=O)c2ccc(CCNC(=O)c3cnc(-c4ccc(C5=N[C@@H](CC(=O)OC)c6nnc(C)n6-c6sc(C)c(C)c65)cc4)cn3)cc2)c2[nH]cc(C#N)c12 [Example 107, methyl [(6S)-4-(4-{5-[(2-{4-[(3-cyano-4-ethyl-1H-indol-7-yl)sulfamoyl]phenyl}ethyl)carbamoyl]pyrazin-2-yl}phenyl)-2,3,9-trimethyl-6H-thieno[3,2-f][1,2,4]triazolo[4,3-a][1,4]diazepin-6-yl]acetate] | 0.046 | 0.26
7 | Cc1sc2c(c1C)C(c1ccc(-c3ccc(C(=O)NCc4ccc(S(=O)(=O)Nc5ccc(C)c6c(C#N)c[nH]c56)cc4)cc3)cc1)=N[C@@H](C)c1nnc(C)n1-2 [Example 32, N-({4-[(3-cyano-4-methyl-1H-indol-7-yl)sulfamoyl]phenyl}methyl)-4′-[(6S)-2,3,6,9-tetramethyl-6H-thieno[3,2-f][1,2,4]triazolo[4,3-a][1,4]diazepin-4-yl][1,1′-biphenyl]-4-carboxamide] | 0.42 | 0.69
8 | COC(=O)C[C@@H]1N=C(c2ccc(-c3ccc(C(=O)NCCc4ccc(S(=O)(=O)Nc5ccc(C)c6c(C#N)c[nH]c56)cc4)c(F)c3)cc2)c2c(sc(C)c2C)-n2c(C)nnc21 [Example 40, methyl [(6S)-4-{4′-[(2-{4-[(3-cyano-4-methyl-1H-indol-7-yl)sulfamoyl]phenyl}ethyl)carbamoyl]-3′-fluoro[1,1′-biphenyl]-4-yl}-2,3,9-trimethyl-6H-thieno[3,2-f][1,2,4]triazolo[4,3-a][1,4]diazepin-6-yl]acetate] | 0.19 | 0.42
9 | CCc1ccc(NS(=O)(=O)c2ccc(CNC(=O)c3cc(F)c(-c4ccc(C5=N[C@@H](CC(=O)OC)c6nnc(C)n6-c6sc(C)c(C)c65)cc4)cc3C)cc2)c2[nH]cc(C#N)c12 [Example Compound 120, methyl [(6S)-4-{4′-[({4-[(3-cyano-4-ethyl-1H-indol-7-yl)sulfamoyl]phenyl}methyl)carbamoyl]-2′-fluoro-5′-methyl[1,1′-biphenyl]-4-yl}-2,3,9-trimethyl-6H-thieno[3,2-f][1,2,4]triazolo[4,3-a][1,4]diazepin-6-yl]acetate] | 0.26 | 0.41
10 | Cc1sc2c(c1C)C(c1ccc(-c3ccc(C(=O)NCc4ccc(S(=O)(=O)Nc5ccc(C)c6c(C#N)c[nH]c56)cc4)cc3)cc1)=N[C@@H](CC(=O)OC(C)C)c1nnc(C)n1-2 [Example Compound 131, isopropyl [(6S)-4-{4′-[({4-[(3-cyano-4-methyl-1H-indol-7-yl)sulfamoyl]phenyl}methyl)carbamoyl][1,1′-biphenyl]-4-yl}-2,3,9-trimethyl-6H-thieno[3,2-f][1,2,4]triazolo[4,3-a][1,4]diazepin-6-yl]acetate] | 0.035 | 0.065
11 | CCc1ccc(NS(=O)(=O)c2ccc(CNC(=O)c3ccc(-c4ccc(C5=N[C@@H](CC(=O)OC)c6nnc(C)n6-c6sc(C)c(C)c65)cc4)cc3C)cc2)c2[nH]cc(C#N)c12 [Example Compound 114, methyl [(6S)-4-{4′-[({4-[(3-cyano-4-ethyl-1H-indol-7-yl)sulfamoyl]phenyl}methyl)carbamoyl]-3′-methyl[1,1′-biphenyl]-4-yl}-2,3,9-trimethyl-6H-thieno[3,2-f][1,2,4]triazolo[4,3-a][1,4]diazepin-6-yl]acetate] | 0.28 | 0.34
12 | CCc1ccc(NS(=O)(=O)c2ccc(CCNC(=O)c3ccc(-c4ccc(C5=N[C@@H](CC(=O)OC)c6nnc(C)n6-c6sc(C)c(C)c65)cc4)cc3)cc2)c2[nH]cc(C#N)c12 [Example Compound 128, methyl [(6S)-4-{4′-[(2-{4-[(3-cyano-4-ethyl-1H-indol-7-yl)sulfamoyl]phenyl}ethyl)carbamoyl][1,1′-biphenyl]-4-yl}-2,3,9-trimethyl-6H-thieno[3,2-f][1,2,4]triazolo[4,3-a][1,4]diazepin-6-yl]acetate] | 0.039 | 0.074
13 | COC(=O)C[C@@H]1N=C(c2ccc(-c3ccc4cc(C(=O)NCc5ccc(S(=O)(=O)Nc6ccc(C)c7c(C#N)c[nH]c67)cc5)sc4c3)cc2)c2c(sc(C)c2C)-n2c(C)nnc21 [Example 62, methyl [(6S)-4-(4-{2-[({4-[(3-cyano-4-methyl-1H-indol-7-yl)sulfamoyl]phenyl}methyl)carbamoyl]-1-benzothiophen-6-yl}phenyl)-2,3,9-trimethyl-6H-thieno[3,2-f][1,2,4]triazolo[4,3-a][1,4]diazepin-6-yl]acetate] | 0.64 | 0.97
14 | Cc1cc(C(=O)NCc2ccc(S(=O)(=O)Nc3ccc(C)c4c(C#N)c[nH]c34)cc2)ccc1-c1ccc(C2=N[C@@H](CC(=O)OC(C)(C)C)c3nnc(C)n3-c3sc(C)c(C)c32)cc1 [Example Compound 144, t-butyl [(6S)-4-{4′-[({4-[(3-cyano-4-methyl-1H-indol-7-yl)sulfamoyl]phenyl}methyl)carbamoyl]-2′-methyl[1,1′-biphenyl]-4-yl}-2,3,9-trimethyl-6H-thieno[3,2-f][1,2,4]triazolo[4,3-a][1,4]diazepin-6-yl]acetate] | 0.59 | 1.2
15 | CCCOC(=O)C[C@@H]1N=C(c2ccc(-c3ccc(C(=O)NCc4ccc(S(=O)(=O)Nc5ccc(C)c6c(C#N)c[nH]c56)cc4)cc3)cc2)c2c(sc(C)c2C)-n2c(C)nnc21 [Example Compound 130, n-propyl [(6S)-4-{4′-[({4-[(3-cyano-4-methyl-1H-indol-7-yl)sulfamoyl]phenyl}methyl)carbamoyl][1,1′-biphenyl]-4-yl}-2,3,9-trimethyl-6H-thieno[3,2-f][1,2,4]triazolo[4,3-a][1,4]diazepin-6-yl]acetate] | 0.028 | 0.05
16 | COC(=O)C[C@@H]1N=C(c2ccc(N3CC[C@@H](C(=O)NCc4ccc(S(=O)(=O)Nc5ccc(C)c6c(C#N)c[nH]c56)cc4)C3)cc2)c2c(sc(C)c2C)-n2c(C)nnc21 [Example 4, methyl [(6S)-4-(4-{(3R)-3-[({4-[(3-cyano-4-methyl-1H-indol-7-yl)sulfamoyl]phenyl}methyl)carbamoyl]pyrrolidin-1-yl}phenyl)-2,3,9-trimethyl-6H-thieno[3,2-f][1,2,4]triazolo[4,3-a][1,4]diazepin-6-yl]acetate] | 38 | 16
17 | CCc1ccc(NS(=O)(=O)c2ccc(CCNC(=O)c3ccc(-c4ccc(C5=N[C@@H](CC(=O)OC)c6nnc(C)n6-c6sc(C)c(C)c65)cc4)cn3)cc2)c2[nH]cc(C#N)c12 [Example 110, methyl [(6S)-4-(4-{6-[(2-{4-[(3-cyano-4-ethyl-1H-indol-7-yl)sulfamoyl]phenyl}ethyl)carbamoyl]pyridin-3-yl}phenyl)-2,3,9-trimethyl-6H-thieno[3,2-f][1,2,4]triazolo[4,3-a][1,4]diazepin-6-yl]acetate] | 0.063 | 0.28
